IC50 data for eight compounds are collected here from ChEMBL document CHEMBL1127934, “Synthesis of a series of brominated 1-phenyl-2-pyridylethenes as inhibitors of the protein-tyrosine kinase p56lck” (Bioorg Med Chem Lett, 1994).

The target in test [1] is Tyrosine-protein kinase Lck (Homo sapiens, UniProt P06239). In words: Inhibition of p56 Lck tyrosine kinase.
Test [2] in a line: Inhibition of p56 Lck tyrosine kinase.

SMILES strings stand for the structures.

Tyrosine-protein kinase Lck, sequence (P06239 whole entry): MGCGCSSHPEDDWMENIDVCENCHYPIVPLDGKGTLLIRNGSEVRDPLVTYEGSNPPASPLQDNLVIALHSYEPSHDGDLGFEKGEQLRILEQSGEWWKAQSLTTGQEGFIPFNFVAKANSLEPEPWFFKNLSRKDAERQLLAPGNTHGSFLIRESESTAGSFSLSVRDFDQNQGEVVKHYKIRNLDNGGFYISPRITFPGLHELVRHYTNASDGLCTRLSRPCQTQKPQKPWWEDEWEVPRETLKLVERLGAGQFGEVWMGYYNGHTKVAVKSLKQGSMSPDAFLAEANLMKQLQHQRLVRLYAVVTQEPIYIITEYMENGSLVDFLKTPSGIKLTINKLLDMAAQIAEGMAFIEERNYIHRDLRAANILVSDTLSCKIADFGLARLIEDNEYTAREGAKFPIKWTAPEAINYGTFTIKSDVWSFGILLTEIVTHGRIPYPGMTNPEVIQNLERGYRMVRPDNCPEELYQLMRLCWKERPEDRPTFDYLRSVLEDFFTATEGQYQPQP

For `COc1c(Br)cc(/C=C(\C#N)c2ccccn2)cc1Br`, in test [1], the IC50 (as a rule, the concentration that gives 50% inhibition) was more than 2530 µM.

`COc1c(Br)cc(/C=C(\C#N)c2cccnc2)cc1Br` displayed an IC50 in test [1] of more than 2530 µM.

Take `N#C/C(=C\c1cc(Br)c(O)c(Br)c1)c1ccccn1`: the IC50 in test [1] stood at 105 µM.

Compound `COc1cc(/C=C/c2cccnc2)cc(OC)c1OC` gave an IC50 in test [2] of 516 µM.

`COc1cc(/C=C/c2ccccn2)cc(OC)c1OC` came in with an IC50 in test [2] of 2180 µM.

In the case of `N#CC(Cc1cc(Br)c(O)c(Br)c1)c1ccccn1` (stereo not drawn), in test [1], the IC50 is more than 2090 µM.

In the case of `COc1cc(/C=C(\C#N)c2cccnc2)cc(Br)c1O`, inhibition in test [1] was half-maximal at 242 µM (IC50).

Compound `N#C/C(=C\c1cc(Br)c(O)c(Br)c1)c1cccnc1` registered an IC50 in test [1] of 168 µM.
